According to patent US11572369B2, “Bicyclic pyridine compositions and methods of using the same for cancer therapy” (UNIVERSITY OF SOUTH CAROLINA, priority 2019, dated 2023):

How the values were obtained:
Assay in all cases: KINOMEscan
Format in all cases: binding
Conditions in all cases: 2000 nM
LYN = LYN (Homo sapiens, UniProt P07948)
S6K1 = biological target: T1, S6K1 (Homo sapiens, UniProt P23443)
T1 construct: purchased DiscoveRx (KINOMEscan scanMAX panel)

MEK6 = biological target: T2, MEK6 (Homo sapiens, UniProt P52564)
T2 construct: purchased DiscoveRx (KINOMEscan scanMAX panel, service)

EPHA3 = biological target: T3, EPHA3 (Homo sapiens, UniProt P29320)
T3 construct: purchased DiscoveRx (KINOMEscan scanMAX panel)

TGFBR1 = biological target: T4, TGFBR1 (Homo sapiens, UniProt P36897)
T4 construct: DNA label (for qPCR read-out); purchased DiscoveRx (KINOMEscan scanMAX panel, contract assay)

SNRK = biological target: T5, SNRK (Homo sapiens, UniProt Q9NRH2)
T5 construct: purchased KINOMEscan (DiscoveRx)

p38-delta = biological target: T6, p38-delta (Homo sapiens, UniProt O15264)
T6 construct: purchased DiscoverX (KINOMEscan service)

MAP4K2 = MAP4K2 (Homo sapiens, UniProt Q12851)
BMPR1A = biological target: T7, BMPR1A (Homo sapiens, UniProt P36894)
T7 construct: DNA label (for qPCR read-out); purchased KINOMEscan scanMAX panel (DiscoveRx)

FGR = biological target: T8, FGR (Homo sapiens, UniProt P09769)
T8 construct: purchased DiscoveRx (KINOMEscan scanMAX panel)

CSNK1G3 = biological target: T9, CSNK1G3 (Homo sapiens, UniProt Q9Y6M4)
T9 construct: DNA label; purchased DiscoveRx (KINOMEscan scanMAX panel)

BRAF(V600E) = biological target: T10, BRAF(V600E) (Homo sapiens, UniProt P15056, V600E)
T10 construct: DNA label (for qPCR read-out); purchased KINOMEscan scanMAX panel (DiscoveRx)

SLK = biological target: T11, SLK (Homo sapiens, UniProt Q9H2G2)
T11 construct: purchased KINOMEscan (DiscoveRx)

CDK5 = biological target: T12, CDK5 (Homo sapiens, UniProt Q00535)
T12 construct: purchased DiscoverX (KINOMEscan service)

PIK3CD = biological target: T13, PIK3CD (Homo sapiens, UniProt O00329)
T13 construct: DNA label; purchased DiscoveRx (KINOMEscan scanMAX panel)

DCAMKL2 = biological target: T14, DCAMKL2 (Homo sapiens, UniProt Q8N568)
T14 construct: DNA label (qPCR read-out); purchased KINOMEscan (DiscoveRx) panel

LATS1 = biological target: T15, LATS1 (Homo sapiens, UniProt O95835)
T15 construct: purchased KINOMEscan (DiscoveRx) panel service

PAK6 = biological target: T16, PAK6 (Homo sapiens, UniProt Q9NQU5)
T16 construct: purchased DiscoverX (KINOMEscan service)

PRKD2 = biological target: T17, PRKD2 (Homo sapiens, UniProt Q9BZL6)
T17 construct: purchased DiscoveRx (KINOMEscan scanMAX panel)

IRAK3 = biological target: T18, IRAK3 (Homo sapiens, UniProt Q9Y616)
T18 construct: DNA label (qPCR read-out); purchased KINOMEscan (DiscoveRx) ScanMAX panel

RET(V804M) = biological target: T19, RET(V804M) (Homo sapiens, UniProt P07949, V804M)
T19 construct: purchased DiscoveRx (KINOMEscan scanMAX panel)

MKNK1 = biological target: T20, MKNK1 (Homo sapiens, UniProt Q9BUB5)
T20 construct: DNA label (qPCR read-out); purchased KINOMEscan scanMAX panel (DiscoveRx)

EPHA2 = biological target: T21, EPHA2 (Homo sapiens, UniProt P29317)
T21 construct: purchased DiscoveRx (KINOMEscan scanMAX panel)

PIM3 = biological target: T22, PIM3 (Homo sapiens, UniProt Q86V86)
T22 construct: DNA label (qPCR read-out); purchased KINOMEscan (DiscoveRx) panel

JNK2 = biological target: T23, JNK2 (Homo sapiens, UniProt P45984)
T23 construct: DNA label (for qPCR read-out); purchased DiscoveRx (KINOMEscan scanMAX panel)

CASK = biological target: T24, CASK (Homo sapiens, UniProt O14936)
T24 construct: DNA label (qPCR read-out); purchased KINOMEscan (ScanMAX panel service)

EPHA6 = biological target: T25, EPHA6 (Homo sapiens, UniProt Q9UF33)
T25 construct: purchased DiscoveRx (KINOMEscan scanMAX panel)

NDR2 = biological target: T26, NDR2 (Homo sapiens, UniProt Q9Y2H1)
T26 construct: DNA label (for qPCR read-out); purchased KINOMEscan scanMAX panel (DiscoveRx)

AKT1 = biological target: T27, AKT1 (Homo sapiens, UniProt P31749)
T27 construct: purchased DiscoveRx (KINOMEscan scanMAX panel, service)

MAP3K15 = biological target: T28, MAP3K15 (Homo sapiens, UniProt Q6ZN16)
T28 construct: DNA label (qPCR read-out); purchased DiscoverX (KINOMEscan service)

CDK4-cyclinD3 = biological target: T29, CDK4-cyclinD3 (Homo sapiens, UniProt P11802)
T29 construct: purchased DiscoverX (KINOMEscan service)

EGFR(E746-A750del) = biological target: T30, EGFR(E746-A750del) (Homo sapiens, UniProt P00533, DEL746-750)
T30 construct: purchased DiscoveRx (KINOMEscan scanMAX panel)

PAK3 = biological target: T31, PAK3 (Homo sapiens, UniProt O75914)
T31 construct: purchased DiscoverX (KINOMEscan service)

EGFR(S752-I759del) = biological target: T32, EGFR(S752-I759del) (Homo sapiens, UniProt P00533, DEL752-759)
T32 construct: purchased DiscoveRx (KINOMEscan scanMAX panel)

CDKL3 = biological target: T33, CDKL3 (Homo sapiens, UniProt Q8IVW4)
T33 construct: DNA label (for qPCR read-out); purchased DiscoveRx (KINOMEscan scanMAX service)

PRKCE = biological target: T34, PRKCE (Homo sapiens, UniProt Q02156)
T34 construct: purchased DiscoveRx (KINOMEscan scanMAX panel)

T26 sequence (Q9Y2H1 whole entry): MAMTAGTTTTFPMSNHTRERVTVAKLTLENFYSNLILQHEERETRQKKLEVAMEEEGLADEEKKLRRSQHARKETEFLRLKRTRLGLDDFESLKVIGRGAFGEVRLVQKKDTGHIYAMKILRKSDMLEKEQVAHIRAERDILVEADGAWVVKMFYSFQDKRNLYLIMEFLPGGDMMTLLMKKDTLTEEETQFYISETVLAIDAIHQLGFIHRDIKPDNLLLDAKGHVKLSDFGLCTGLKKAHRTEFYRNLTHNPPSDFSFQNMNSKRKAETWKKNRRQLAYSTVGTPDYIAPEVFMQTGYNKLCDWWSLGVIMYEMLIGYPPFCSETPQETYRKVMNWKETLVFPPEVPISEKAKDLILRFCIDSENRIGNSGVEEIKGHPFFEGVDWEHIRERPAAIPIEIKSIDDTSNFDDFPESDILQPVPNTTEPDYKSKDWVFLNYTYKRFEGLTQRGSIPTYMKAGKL
T31 sequence (O75914 whole entry): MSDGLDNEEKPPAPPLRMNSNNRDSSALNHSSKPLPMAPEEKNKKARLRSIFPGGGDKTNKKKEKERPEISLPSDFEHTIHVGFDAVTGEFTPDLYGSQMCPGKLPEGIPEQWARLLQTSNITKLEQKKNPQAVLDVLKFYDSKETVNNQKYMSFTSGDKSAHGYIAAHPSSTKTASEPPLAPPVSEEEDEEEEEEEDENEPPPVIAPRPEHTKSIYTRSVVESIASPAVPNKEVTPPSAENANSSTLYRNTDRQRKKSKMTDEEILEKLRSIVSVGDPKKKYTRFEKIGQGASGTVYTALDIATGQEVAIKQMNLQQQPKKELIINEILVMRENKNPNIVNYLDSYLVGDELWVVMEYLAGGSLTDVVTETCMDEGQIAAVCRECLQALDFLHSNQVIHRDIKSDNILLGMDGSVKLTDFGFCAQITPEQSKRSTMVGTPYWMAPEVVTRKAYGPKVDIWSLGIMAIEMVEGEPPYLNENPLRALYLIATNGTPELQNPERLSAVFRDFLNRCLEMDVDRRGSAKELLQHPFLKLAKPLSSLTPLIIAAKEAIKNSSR
T29 sequence (P11802 whole entry): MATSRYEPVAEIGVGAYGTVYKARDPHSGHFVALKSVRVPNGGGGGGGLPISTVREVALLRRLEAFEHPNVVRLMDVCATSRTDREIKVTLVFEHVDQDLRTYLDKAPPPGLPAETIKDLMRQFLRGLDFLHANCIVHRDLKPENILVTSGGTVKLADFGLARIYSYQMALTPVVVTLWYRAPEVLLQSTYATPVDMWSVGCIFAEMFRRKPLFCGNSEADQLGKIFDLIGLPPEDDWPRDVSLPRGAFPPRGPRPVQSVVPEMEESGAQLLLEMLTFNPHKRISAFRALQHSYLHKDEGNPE
T29 sequence (P30281 whole entry partner): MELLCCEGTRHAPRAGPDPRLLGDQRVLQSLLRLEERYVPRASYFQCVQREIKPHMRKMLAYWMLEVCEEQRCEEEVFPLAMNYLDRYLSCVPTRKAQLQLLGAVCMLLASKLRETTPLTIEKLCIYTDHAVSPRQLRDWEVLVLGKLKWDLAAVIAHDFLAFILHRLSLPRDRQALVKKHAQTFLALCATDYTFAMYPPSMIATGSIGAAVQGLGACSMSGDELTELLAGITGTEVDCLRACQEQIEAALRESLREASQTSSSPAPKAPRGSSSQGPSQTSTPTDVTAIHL
T11 sequence (Q9H2G2 whole entry): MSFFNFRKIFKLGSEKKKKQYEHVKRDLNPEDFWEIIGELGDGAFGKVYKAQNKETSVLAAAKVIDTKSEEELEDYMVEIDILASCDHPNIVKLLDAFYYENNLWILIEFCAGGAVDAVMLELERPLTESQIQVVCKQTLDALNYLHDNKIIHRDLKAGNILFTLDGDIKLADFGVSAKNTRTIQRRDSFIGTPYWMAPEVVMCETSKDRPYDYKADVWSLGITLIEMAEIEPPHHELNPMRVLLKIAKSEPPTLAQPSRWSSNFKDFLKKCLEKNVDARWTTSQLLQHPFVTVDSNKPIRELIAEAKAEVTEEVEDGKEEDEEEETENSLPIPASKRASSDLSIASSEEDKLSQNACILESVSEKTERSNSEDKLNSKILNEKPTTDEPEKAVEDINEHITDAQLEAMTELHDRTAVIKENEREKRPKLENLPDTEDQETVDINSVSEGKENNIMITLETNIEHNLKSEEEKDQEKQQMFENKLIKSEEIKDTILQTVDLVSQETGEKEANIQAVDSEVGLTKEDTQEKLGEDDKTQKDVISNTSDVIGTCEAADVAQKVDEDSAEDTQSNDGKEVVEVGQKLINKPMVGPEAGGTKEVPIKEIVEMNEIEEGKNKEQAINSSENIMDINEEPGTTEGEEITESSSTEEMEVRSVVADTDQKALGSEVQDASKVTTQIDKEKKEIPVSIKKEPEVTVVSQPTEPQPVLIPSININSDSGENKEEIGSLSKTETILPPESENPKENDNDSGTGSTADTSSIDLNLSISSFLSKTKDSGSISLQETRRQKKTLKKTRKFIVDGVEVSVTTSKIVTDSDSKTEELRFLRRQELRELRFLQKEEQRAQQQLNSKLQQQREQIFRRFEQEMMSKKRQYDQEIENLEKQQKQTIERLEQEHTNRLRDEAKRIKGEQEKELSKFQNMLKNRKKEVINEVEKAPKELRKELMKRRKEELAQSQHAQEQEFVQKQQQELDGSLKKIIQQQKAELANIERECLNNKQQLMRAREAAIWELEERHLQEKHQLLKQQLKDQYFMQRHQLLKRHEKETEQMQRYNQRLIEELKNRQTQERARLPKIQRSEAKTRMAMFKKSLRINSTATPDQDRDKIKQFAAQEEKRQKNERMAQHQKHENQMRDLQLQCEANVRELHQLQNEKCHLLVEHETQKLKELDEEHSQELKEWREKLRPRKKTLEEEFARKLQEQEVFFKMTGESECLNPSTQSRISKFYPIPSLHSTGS
T33 sequence (Q8IVW4 whole entry): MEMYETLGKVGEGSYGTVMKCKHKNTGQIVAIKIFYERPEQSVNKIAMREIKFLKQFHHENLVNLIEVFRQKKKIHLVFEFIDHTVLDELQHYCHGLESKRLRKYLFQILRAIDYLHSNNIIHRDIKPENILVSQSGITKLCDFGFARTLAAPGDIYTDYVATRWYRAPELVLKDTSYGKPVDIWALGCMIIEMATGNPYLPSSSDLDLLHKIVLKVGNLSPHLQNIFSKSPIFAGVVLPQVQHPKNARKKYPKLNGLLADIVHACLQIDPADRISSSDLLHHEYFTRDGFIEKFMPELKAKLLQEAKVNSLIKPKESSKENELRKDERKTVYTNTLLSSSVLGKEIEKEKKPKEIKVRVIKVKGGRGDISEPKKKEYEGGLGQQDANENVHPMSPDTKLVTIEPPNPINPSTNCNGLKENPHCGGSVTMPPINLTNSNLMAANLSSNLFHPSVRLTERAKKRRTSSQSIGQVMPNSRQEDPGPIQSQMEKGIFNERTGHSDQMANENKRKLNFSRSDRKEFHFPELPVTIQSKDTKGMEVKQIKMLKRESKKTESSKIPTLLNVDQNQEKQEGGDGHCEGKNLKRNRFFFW
T19 sequence (P07949 29-1114 V804M): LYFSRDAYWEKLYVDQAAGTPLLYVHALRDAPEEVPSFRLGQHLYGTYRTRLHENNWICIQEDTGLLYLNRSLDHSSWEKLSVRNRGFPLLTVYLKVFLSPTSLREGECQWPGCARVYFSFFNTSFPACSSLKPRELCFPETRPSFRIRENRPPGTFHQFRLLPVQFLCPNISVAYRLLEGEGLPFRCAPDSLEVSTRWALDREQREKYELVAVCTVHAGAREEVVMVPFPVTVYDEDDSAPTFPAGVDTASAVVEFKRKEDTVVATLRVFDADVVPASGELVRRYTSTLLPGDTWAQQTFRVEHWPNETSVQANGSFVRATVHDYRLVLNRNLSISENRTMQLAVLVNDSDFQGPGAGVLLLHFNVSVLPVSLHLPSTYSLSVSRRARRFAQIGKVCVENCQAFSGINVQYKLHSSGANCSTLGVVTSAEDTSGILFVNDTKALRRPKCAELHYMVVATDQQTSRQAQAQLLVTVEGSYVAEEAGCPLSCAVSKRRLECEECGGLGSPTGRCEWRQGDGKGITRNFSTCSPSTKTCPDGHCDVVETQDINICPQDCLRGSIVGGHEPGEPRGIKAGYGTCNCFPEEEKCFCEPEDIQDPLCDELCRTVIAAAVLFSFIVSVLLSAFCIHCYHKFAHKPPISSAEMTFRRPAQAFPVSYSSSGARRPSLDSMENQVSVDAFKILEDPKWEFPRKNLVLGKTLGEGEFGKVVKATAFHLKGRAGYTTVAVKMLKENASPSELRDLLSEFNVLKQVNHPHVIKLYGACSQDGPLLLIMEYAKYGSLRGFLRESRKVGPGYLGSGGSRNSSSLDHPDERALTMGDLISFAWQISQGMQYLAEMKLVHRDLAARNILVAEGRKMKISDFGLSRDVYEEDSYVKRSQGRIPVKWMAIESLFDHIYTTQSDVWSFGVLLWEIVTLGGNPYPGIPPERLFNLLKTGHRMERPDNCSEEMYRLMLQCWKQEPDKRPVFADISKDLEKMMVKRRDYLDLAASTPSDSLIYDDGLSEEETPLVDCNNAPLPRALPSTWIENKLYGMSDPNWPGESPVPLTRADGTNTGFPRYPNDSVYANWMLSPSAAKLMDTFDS
T9 sequence (Q9Y6M4 whole entry): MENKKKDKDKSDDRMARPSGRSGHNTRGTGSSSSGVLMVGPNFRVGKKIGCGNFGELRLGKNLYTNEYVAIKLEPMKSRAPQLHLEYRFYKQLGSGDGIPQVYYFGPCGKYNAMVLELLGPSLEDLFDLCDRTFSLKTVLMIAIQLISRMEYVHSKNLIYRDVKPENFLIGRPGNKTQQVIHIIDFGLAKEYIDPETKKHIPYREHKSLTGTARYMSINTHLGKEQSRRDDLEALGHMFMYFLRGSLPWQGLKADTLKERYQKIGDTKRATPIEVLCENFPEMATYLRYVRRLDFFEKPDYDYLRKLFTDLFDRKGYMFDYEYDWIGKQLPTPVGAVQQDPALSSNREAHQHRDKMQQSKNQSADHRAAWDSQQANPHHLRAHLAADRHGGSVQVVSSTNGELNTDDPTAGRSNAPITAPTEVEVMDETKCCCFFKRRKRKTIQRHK

Row | SMILES | % Ctrl (LYN) | % Ctrl (S6K1) | % Ctrl (MEK6) | % Ctrl (EPHA3) | % Ctrl (TGFBR1) | % Ctrl (SNRK) | % Ctrl (p38-delta) | % Ctrl (MAP4K2) | % Ctrl (BMPR1A) | % Ctrl (FGR) | % Ctrl (CSNK1G3) | % Ctrl (BRAF(V600E)) | % Ctrl (SLK) | % Ctrl (CDK5) | % Ctrl (PIK3CD) | % Ctrl (DCAMKL2) | % Ctrl (LATS1) | % Ctrl (PAK6) | % Ctrl (PRKD2) | % Ctrl (IRAK3) | also measured
1 | [2H]C([2H])([2H])N(C(=O)c1ccc(N2CCCN(c3ccnc4sc(C(N)=O)c(N)c34)CC2)cc1)C([2H])([2H])[2H] [15u_D6, 3-amino-4-(4-(4-(bis(methyl-d3)carbamoyl)phenyl)-1,4-diazepan-1-yl)thieno[2,3-b]pyridine-2-carboxamide] | 98 % Ctrl | 89 % Ctrl | 96 % Ctrl | 87 % Ctrl | 100 % Ctrl | 75 % Ctrl | 97 % Ctrl | 66 % Ctrl | 100 % Ctrl | 100 % Ctrl | 80 % Ctrl | 84 % Ctrl | 54 % Ctrl | 94 % Ctrl | 71 % Ctrl | 100 % Ctrl | 97 % Ctrl | 99 % Ctrl | 90 % Ctrl | 89 % Ctrl | % Ctrl (RET(V804M)): 100 % Ctrl; % Ctrl (MKNK1): 79 % Ctrl; % Ctrl (EPHA2): 100 % Ctrl; % Ctrl (PIM3): 98 % Ctrl; % Ctrl (JNK2): 54 % Ctrl; % Ctrl (CASK): 96 % Ctrl; % Ctrl (EPHA6): 100 % Ctrl; % Ctrl (NDR2): 36 % Ctrl; % Ctrl (AKT1): 100 % Ctrl; % Ctrl (MAP3K15): 92 % Ctrl; % Ctrl (CDK4-cyclinD3): 97 % Ctrl; % Ctrl (EGFR(E746-A750del)): 100 % Ctrl; % Ctrl (PAK3): 40 % Ctrl; % Ctrl (EGFR(S752-I759del)): 100 % Ctrl; % Ctrl (CDKL3): 100 % Ctrl; % Ctrl (PRKCE): 97 % Ctrl
2 | CN(C)C(=O)c1ccc(N2CCCN(c3ccnc4sc(C(N)=O)c(N)c34)CC2)cc1 [15u, 3-amino-4-(4-(4-(dimethylcarbamoyl)phenyl)-1,4-diazepan-1-yl)thieno[2,3-b]pyridine-2-carboxamide] | 100 % Ctrl | 95 % Ctrl | 100 % Ctrl | 100 % Ctrl | 100 % Ctrl | 100 % Ctrl | 96 % Ctrl | 84 % Ctrl | 100 % Ctrl | 100 % Ctrl | 95 % Ctrl | 100 % Ctrl | 56 % Ctrl | 84 % Ctrl | 94 % Ctrl | 100 % Ctrl | 89 % Ctrl | 82 % Ctrl | 56 % Ctrl | 93 % Ctrl | % Ctrl (RET(V804M)): 100 % Ctrl; % Ctrl (MKNK1): 94 % Ctrl; % Ctrl (EPHA2): 95 % Ctrl; % Ctrl (PIM3): 89 % Ctrl; % Ctrl (JNK2): 99 % Ctrl; % Ctrl (CASK): 71 % Ctrl; % Ctrl (EPHA6): 100 % Ctrl; % Ctrl (NDR2): 99 % Ctrl; % Ctrl (AKT1): 100 % Ctrl; % Ctrl (MAP3K15): 97 % Ctrl; % Ctrl (CDK4-cyclinD3): 95 % Ctrl; % Ctrl (EGFR(E746-A750del)): 100 % Ctrl; % Ctrl (PAK3): 80 % Ctrl; % Ctrl (EGFR(S752-I759del)): 86 % Ctrl; % Ctrl (CDKL3): 100 % Ctrl; % Ctrl (PRKCE): 93 % Ctrl
